From patent US20070015818A1, “Cyclic sulfone containing retroviral protease inhibitors” (G.D. Searle & Co. (now G.D. Searle, LLC), priority 1995, published 2007)

Tested on: HIV
Experiment: EC50 of Table 1 (antiviral activity, method not described)
Type: cell-based
Details: Human immunodeficiency virus 1

EC50	SMILES
0.295 µM	CC(C)CCN(C[C@@H](O)[C@H](Cc1ccccc1)NC(=O)C1CCCS(=O)(=O)C1)C(=O)NC(C)(C)Cn1ccnc1 (stereo partly drawn) [Example 4a]
0.012 µM	CC(C)(C)NC(=O)[C@@H]1C[C@@H]2CCCC[C@@H]2CN1C[C@@H](O)[C@H](Cc1ccccc1)NC(=O)C1CCCS(=O)(=O)C1 (stereo partly drawn) [Example 7]
0.019 µM	CC(C)CCN(C[C@@H](O)[C@H](Cc1ccccc1)NC(=O)C1CCCS(=O)(=O)C1)S(=O)(=O)c1ccccc1 (stereo partly drawn) [Example 8]
